Data from the kinase profiling compilation of Christmann-Franck et al. (2016).

Experiments:
Test in all cases: KINOMEscan competition binding
Conditions in all cases: compound 10.0 µM
[1] = system: ABL1 (human), P00519 [H396P]
[2] = system: EGFR (human), P00533 [747-751 del / S ins]
[3] = system: EGFR (human), P00533 [752-759 del]
[4] = system: EGFR (human), P00533 [T790M/L858R]
[5] = system: EGFR (human), P00533 [T790M]
[6] = system: FLT3 (human), P36888 [D835H]
[7] = system: KIT (human), P10721 [L576P]
[8] = system: MET (human), P08581 [Y1235D]
[9] = system: RET (human), P07949 [M918T]
[10] = system: RET (human), P07949 [V804M]
[11] = system: ABL1 (human), P00519 [Y253F]
[12] = system: KIT (human), P10721 [V559D/V654A]
[13] = system: ALK (human), Q9UM73 [C1156Y]
[14] = system: ALK (human), Q9UM73 [L1196M]
[15] = system: FLT3 (human), P36888 [R834Q]

Chain of KIT (human), P10721 [L576P] (P10721 whole entry L576P, looked up): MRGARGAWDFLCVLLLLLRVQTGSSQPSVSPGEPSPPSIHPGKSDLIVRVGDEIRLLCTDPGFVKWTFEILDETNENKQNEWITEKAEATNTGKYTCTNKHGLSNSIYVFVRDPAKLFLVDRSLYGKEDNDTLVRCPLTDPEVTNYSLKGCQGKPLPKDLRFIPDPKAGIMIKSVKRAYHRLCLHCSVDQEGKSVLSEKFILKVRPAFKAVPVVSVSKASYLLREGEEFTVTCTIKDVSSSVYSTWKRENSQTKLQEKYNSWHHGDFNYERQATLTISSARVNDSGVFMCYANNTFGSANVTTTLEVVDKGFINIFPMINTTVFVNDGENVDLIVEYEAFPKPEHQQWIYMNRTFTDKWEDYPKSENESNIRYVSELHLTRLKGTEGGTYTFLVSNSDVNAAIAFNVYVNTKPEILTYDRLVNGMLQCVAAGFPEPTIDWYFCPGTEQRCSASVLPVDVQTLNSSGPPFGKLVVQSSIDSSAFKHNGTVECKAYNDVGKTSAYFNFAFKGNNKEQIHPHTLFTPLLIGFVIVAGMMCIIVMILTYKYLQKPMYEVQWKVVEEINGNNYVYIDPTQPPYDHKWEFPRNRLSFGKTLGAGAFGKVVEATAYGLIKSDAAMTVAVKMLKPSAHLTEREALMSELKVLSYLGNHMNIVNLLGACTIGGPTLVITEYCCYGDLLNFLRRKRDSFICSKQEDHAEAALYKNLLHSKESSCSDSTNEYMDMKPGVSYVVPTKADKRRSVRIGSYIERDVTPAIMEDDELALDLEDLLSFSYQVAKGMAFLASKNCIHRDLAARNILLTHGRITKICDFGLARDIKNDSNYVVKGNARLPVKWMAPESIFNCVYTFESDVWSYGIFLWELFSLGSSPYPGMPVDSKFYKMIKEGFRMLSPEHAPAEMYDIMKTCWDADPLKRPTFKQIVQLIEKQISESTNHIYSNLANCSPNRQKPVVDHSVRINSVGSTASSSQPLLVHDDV
Chain of RET (human), P07949 [V804M] (P07949 whole entry V804M, looked up): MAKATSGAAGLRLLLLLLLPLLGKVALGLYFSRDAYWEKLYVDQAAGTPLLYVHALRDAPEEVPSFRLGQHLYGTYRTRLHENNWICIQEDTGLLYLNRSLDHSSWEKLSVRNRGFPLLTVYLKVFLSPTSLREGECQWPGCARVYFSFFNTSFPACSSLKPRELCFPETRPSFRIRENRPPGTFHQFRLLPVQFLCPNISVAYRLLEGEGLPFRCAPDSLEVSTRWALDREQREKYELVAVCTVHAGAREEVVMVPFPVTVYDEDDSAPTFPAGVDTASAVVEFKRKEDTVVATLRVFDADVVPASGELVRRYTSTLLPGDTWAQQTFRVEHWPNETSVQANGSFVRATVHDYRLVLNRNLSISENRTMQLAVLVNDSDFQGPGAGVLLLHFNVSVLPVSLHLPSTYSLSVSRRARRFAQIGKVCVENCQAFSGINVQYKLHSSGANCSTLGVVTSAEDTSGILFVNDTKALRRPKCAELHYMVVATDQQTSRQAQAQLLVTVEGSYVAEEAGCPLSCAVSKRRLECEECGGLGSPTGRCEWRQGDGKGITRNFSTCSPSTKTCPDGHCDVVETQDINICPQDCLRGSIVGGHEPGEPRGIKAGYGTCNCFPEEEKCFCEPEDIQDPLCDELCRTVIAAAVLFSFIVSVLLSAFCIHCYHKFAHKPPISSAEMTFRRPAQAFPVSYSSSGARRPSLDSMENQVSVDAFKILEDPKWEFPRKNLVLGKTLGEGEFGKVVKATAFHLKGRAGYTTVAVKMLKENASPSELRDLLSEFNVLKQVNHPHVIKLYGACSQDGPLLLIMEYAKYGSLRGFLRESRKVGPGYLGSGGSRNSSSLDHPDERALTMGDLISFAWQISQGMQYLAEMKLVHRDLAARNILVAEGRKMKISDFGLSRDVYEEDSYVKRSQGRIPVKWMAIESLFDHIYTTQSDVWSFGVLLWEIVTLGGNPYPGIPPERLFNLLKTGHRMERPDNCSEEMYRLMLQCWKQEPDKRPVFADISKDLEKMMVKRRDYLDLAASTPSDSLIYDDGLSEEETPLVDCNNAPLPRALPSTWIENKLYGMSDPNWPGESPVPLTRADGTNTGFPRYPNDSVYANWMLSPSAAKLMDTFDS
Chain of KIT (human), P10721 [V559D/V654A] (P10721 whole entry V559D/V654A, looked up): as the sequence (P10721 whole entry L576P, looked up) above, with V559D, P576L, V654A counted along it
Chain of RET (human), P07949 [M918T] (P07949 whole entry M918T, looked up): as the sequence (P07949 whole entry V804M, looked up) above, with M804V, M918T counted along it
Chain of ALK (human), Q9UM73 [C1156Y] (Q9UM73 whole entry C1156Y, looked up): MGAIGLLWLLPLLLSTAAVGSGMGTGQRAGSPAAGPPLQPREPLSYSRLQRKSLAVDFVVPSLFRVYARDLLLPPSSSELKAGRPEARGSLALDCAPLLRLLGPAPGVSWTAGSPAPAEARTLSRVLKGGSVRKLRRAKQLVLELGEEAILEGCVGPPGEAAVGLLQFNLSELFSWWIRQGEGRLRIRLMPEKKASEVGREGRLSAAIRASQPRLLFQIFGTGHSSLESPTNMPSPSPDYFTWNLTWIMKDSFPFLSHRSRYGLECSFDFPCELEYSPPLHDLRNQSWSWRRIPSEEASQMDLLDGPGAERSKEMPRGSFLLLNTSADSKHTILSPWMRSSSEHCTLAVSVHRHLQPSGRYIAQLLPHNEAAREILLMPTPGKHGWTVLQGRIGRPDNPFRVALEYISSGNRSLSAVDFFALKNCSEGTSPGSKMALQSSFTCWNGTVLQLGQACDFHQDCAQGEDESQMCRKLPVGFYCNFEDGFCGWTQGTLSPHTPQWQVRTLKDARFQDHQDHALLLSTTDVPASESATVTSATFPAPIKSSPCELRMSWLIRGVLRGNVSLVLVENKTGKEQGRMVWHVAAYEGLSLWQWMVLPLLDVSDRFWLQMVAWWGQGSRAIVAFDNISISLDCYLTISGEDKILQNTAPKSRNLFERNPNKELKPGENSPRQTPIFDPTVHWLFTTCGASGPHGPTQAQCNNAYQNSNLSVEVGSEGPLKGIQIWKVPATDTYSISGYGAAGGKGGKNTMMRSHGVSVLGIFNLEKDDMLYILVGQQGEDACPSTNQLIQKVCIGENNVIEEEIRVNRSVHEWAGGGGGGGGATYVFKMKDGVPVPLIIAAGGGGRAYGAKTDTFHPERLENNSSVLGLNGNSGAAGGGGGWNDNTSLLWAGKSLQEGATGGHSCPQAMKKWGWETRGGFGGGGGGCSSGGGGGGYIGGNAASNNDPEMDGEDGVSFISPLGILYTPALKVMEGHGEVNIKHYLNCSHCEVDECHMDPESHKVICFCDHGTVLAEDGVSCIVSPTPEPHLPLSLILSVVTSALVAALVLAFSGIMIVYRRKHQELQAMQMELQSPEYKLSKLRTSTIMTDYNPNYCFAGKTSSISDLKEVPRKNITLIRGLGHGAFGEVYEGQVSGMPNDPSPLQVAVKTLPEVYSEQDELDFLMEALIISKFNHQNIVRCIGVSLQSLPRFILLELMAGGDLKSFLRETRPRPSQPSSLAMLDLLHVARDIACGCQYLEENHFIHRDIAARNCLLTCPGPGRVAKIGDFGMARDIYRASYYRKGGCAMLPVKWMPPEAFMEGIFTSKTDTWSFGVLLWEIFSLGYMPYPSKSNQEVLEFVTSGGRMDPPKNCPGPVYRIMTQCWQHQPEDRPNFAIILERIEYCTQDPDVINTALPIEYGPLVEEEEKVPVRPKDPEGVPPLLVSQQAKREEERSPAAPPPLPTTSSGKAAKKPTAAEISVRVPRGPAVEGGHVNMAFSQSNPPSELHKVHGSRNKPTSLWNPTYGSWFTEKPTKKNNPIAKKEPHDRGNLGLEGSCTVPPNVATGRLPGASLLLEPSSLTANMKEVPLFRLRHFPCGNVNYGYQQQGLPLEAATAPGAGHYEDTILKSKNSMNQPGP
Chain of ALK (human), Q9UM73 [L1196M] (Q9UM73 whole entry L1196M, looked up): as the sequence (Q9UM73 whole entry C1156Y, looked up) above, with Y1156C, L1196M counted along it

Structure (SMILES) | kinase still bound, per cent of control [1] [%] | kinase still bound, per cent of control [2] [%] | kinase still bound, per cent of control [3] [%] | kinase still bound, per cent of control [4] [%] | kinase still bound, per cent of control [5] [%] | kinase still bound, per cent of control [6] [%] | kinase still bound, per cent of control [7] [%] | kinase still bound, per cent of control [8] [%] | kinase still bound, per cent of control [9] [%] | kinase still bound, per cent of control [10] [%] | kinase still bound, per cent of control [11] [%] | kinase still bound, per cent of control [12] [%] | kinase still bound, per cent of control [13] [%] | kinase still bound, per cent of control [14] [%] | kinase still bound, per cent of control [15] [%]
CCC(=O)N1CCN(c2ccc(-n3c(=O)ccc4cnc5ccc(-c6cnc7ccccc7c6)cc5c43)cc2C(F)(F)F)CC1 | 68 | 80 | 84 | 100 | 100 | 18 | 48 | 100 | 51 | 69 |  |  |  |  | 
COc1cc(C(=O)NC2CCN(C)CC2)ccc1Nc1ncc2c(n1)N(C1CCCC1)CCC(=O)N2C(C)C | 100 | 100 | 100 | 100 |  | 100 | 100 | 100 | 0 | 100 | 100 | 100 |  |  | 
OCCCNc1cc(-c2ccnc(Nc3cccc(Cl)c3)n2)ccn1 | 100 | 100 | 100 | 100 |  | 100 | 100 | 100 | 100 | 100 | 100 | 100 |  |  | 
Cc1cn(-c2cc(C(=O)Nc3ccc(C)c(NC(=O)c4ccno4)c3)cc(C(F)(F)F)c2)cn1 | 16 | 100 | 100 | 100 |  | 100 | 0 | 100 | 100 | 100 | 7.4 | 5.4 |  |  | 
COc1cc2ncnc(Nc3cccc(Cl)c3)c2cc1OC |  | 3.2 | 2.5 | 22 | 1.3 | 15 | 56 | 100 | 3.4 | 94 | 2.3 | 82 | 31 | 63 | 58
O=c1[nH]c2ccccc2n1C1CCN(Cc2ccc(-c3nc4cc5[nH]cnc5cc4nc3-c3ccccc3)cc2)CC1 |  | 92 | 58 | 100 | 67 | 74 | 87 | 68 | 79 | 91 | 72 | 92 | 55 | 64 | 100
